# Reference: ChEMBL document CHEMBL1201862, “PubChem BioAssay data set” (2004)
# Calls of active or inactive are those of the source.
# What was measured:
# [1] = Fluorescence-based cell-based high throughput dose response assay for inhibitors of the interaction of nucleotide-binding oligomerization domain containing 2 (NOD2) and the receptor-interacting serine-threonine kinase 2 (RIPK2).; assay type: functional; settings: Homo sapiens
# [2] = Trypanosoma cruzi growth suppression in host cells – NIH3T3 host cells, beta-gal luminescence, confirmation (AID 2044); assay type: functional, cell-based;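 note: intracellular parasites grown in NIH/3T3 mouse fibroblasts as host cells; luminescent beta-galactosidase reporter signal from transgenic T. cruzi replicating inside host cells; inhibitors lower the luminescence signal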
# [3] = NIH3T3 cell viability loss – ATP luminescence, mouse fibroblasts, counter-screen, dose response (AID 2010); assay type: functional, cell-based;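 note: cells exposed to compound for about 90 hours before reading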
# Paired box protein Pax-8 = Paired box protein Pax-8 (Homo sapiens, UniProt Q06710); assay: PAX8 transcriptional activity inhibition in RMG-I – RMG-I cells, luciferase, cherry-pick, dose response (AID 687027); assay type: functional, cell-based;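 note: luciferase reporter driven by Pax8 target thyroperoxidase promoter measured by SteadyGlo luminescence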
# Sequence of Paired box protein Pax-8 (Q06710 whole entry): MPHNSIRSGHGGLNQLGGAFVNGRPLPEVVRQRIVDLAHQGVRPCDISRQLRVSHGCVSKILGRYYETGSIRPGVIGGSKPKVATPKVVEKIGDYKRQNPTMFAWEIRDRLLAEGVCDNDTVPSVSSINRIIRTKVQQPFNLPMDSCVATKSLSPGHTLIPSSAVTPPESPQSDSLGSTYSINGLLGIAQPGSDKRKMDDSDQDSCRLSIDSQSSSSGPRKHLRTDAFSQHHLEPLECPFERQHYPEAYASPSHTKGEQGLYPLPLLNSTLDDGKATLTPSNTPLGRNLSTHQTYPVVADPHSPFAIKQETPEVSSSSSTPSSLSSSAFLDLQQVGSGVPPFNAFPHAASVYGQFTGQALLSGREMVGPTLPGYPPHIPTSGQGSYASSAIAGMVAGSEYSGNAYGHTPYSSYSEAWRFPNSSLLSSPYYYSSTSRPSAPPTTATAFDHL
# Beta Lactamase = Beta Lactamase (Pseudomonas aeruginosa, UniProt Q932Y6); assay: BLA reporter interference, concentration series – BLA reporter cells, FRET fluorescence, artefact control for NOD2-RIPK2 interaction inhibitor project, dose response (AID 651552); assay type: functional, cell-based
# Sequence of Beta Lactamase (Q932Y6 whole entry): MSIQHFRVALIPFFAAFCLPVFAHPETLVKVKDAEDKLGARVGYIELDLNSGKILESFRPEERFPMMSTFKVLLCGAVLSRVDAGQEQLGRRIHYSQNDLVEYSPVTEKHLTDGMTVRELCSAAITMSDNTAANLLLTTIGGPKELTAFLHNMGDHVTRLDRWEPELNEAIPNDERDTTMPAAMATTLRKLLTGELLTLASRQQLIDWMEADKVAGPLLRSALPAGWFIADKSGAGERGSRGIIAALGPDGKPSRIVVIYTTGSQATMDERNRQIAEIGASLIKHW
# [4] = molecular target: 26S proteasome non-ATPase regulatory subunit 14 (Homo sapiens, UniProt O00487); assay: inhibition of proteasome subunit RPN11 – biochemical, fluorescence polarization, uHTS hits, confirmation (AID 602368); assay type: functional
# Sequence of 26S proteasome non-ATPase regulatory subunit 14 (O00487 whole entry): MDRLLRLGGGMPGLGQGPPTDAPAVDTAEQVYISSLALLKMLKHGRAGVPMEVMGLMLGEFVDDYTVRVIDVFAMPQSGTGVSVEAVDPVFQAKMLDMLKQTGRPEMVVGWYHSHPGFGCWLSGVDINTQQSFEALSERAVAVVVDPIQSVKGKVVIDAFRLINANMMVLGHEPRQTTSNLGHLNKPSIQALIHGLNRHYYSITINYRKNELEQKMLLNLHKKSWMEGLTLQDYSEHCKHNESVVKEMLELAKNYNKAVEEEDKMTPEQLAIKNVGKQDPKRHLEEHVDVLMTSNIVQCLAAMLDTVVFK
# Prothrombin = Prothrombin (Bos taurus, UniProt P00735); assay: thrombin protease inhibitors – biochemical, fluorescence polarization, uHTS hits, dose response (AID 602369); assay type: functional
# [5] = molecular target: 72 kDa type IV collagenase (Homo sapiens, UniProt P08253); assay: Dose Response validation of uHTS RPN11 inhibitor hits using a MMP-2 Fluorescence assay.; assay type: functional
# Sequence of 72 kDa type IV collagenase (P08253 whole entry): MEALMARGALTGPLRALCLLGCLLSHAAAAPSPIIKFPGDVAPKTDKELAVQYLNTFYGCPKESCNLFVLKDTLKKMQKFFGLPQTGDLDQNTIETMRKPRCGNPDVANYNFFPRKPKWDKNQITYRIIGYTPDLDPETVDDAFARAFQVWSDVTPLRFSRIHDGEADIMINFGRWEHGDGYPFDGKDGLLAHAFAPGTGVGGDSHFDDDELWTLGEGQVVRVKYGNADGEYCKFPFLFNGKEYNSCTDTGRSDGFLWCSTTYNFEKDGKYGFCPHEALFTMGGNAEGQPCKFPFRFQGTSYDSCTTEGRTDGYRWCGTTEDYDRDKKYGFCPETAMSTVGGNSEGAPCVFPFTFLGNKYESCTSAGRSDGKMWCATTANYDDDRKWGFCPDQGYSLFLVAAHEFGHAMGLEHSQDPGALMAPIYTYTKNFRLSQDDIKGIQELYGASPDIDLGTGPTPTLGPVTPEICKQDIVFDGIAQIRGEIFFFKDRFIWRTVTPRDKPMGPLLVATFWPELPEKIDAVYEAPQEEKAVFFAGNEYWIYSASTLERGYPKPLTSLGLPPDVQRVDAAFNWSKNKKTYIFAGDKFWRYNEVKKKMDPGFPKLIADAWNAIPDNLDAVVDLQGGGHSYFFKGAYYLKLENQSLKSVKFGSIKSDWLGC
# [6] = Counterscreen for inhibitors of Trypanosoma brucei methionyl tRNA synthetase (MetRS): Luminescence-based cell-based high throughput dose response assay to identify compounds that are cytotoxic to Jurkat human T lymphocyte cells.; assay type: functional
# [7] = molecular target: T1, Sentrin-specific protease 1 (Homo sapiens, UniProt Q9P0U3); assay: SENP1 catalytic domain blockers, concentration series – biochemical, kinetic FRET, dose response (AID 651697); assay type: functional; settings: read-out: IC50_Mean
# T1 sequence (Q9P0U3 whole entry): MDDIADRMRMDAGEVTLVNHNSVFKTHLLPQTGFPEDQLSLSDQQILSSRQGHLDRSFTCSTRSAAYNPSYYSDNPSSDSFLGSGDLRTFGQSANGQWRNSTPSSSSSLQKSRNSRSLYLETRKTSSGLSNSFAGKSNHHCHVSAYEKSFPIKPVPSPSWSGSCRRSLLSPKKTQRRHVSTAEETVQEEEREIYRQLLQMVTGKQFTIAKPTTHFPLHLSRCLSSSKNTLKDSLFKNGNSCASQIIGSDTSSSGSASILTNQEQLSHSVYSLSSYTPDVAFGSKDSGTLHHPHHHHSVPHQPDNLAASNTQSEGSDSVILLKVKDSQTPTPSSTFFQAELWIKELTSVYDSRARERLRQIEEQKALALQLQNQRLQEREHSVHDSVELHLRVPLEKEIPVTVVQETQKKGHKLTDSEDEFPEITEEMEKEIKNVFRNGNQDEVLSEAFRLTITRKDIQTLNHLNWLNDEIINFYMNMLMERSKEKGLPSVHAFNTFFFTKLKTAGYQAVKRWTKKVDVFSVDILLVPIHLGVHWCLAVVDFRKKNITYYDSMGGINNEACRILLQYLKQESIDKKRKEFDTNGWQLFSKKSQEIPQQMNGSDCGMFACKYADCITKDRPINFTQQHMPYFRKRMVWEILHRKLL
# [8] = molecular target: T1, Sentrin-specific protease 1; assay: Dose response confirmation of small molecule inhibitors of the catalytic domain of the SUMO protease, SENP1 in a FRET assay.; assay type: functional; settings: read-out: IC50_Mean
# [9] = molecular target: T2, Rac GTPase-activating protein 1 (Homo sapiens, UniProt Q9H0H5); assay: blockers of MgcRacGAP-driven Rac1 GTP hydrolysis – biochemical, ADP Hunter fluorescence, primary and confirmatory, confirmation (AID 624330); assay type: functional
# T2 sequence (Q9H0H5 whole entry): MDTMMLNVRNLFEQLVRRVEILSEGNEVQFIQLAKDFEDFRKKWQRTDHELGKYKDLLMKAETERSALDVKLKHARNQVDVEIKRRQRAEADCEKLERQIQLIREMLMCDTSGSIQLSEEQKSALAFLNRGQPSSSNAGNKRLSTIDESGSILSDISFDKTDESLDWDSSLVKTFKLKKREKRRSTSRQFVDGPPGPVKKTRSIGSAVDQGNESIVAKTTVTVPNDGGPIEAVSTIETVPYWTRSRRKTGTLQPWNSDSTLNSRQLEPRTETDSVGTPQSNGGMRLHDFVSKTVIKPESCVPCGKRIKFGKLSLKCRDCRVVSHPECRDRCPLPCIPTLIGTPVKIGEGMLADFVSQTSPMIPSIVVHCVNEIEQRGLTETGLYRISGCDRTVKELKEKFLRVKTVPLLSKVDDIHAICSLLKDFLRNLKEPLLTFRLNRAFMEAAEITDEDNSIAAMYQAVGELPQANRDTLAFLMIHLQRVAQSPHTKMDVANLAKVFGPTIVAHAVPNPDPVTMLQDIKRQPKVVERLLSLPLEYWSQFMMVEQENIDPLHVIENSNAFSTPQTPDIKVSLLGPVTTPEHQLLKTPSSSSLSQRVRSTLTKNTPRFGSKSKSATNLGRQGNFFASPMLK
# [10] = viability loss in HeLa cells – cytotoxicity control for MgcRacGAP inhibitor project, dose response (AID 624300); assay type: functional
# [11] = molecular target: T3, Latent membrane protein 1 (Human herpesvirus 4 (strain B95-8), UniProt P03230); assay: LMP1 TES1 pathway selectivity over dsRED control – imaging, HEK293T, dual-color eGFP/dsRED, cherry-picks, selectivity assay for LMP1 NF-kB inhibitor project, dose response (AID 588398); assay type: functional, cell-based
# T3 sequence (P03230 whole entry): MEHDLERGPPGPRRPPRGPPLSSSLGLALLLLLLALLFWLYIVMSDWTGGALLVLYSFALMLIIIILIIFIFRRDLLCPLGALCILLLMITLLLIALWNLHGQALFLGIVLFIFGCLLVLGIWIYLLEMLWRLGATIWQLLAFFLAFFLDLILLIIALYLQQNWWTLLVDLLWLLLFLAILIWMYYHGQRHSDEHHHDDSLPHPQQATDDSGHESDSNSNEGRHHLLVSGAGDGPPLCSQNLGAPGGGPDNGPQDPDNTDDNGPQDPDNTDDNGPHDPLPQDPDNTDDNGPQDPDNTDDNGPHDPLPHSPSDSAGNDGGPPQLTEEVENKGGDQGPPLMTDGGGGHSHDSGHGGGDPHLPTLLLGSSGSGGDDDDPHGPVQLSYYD
# [12] = molecular target: T4, Heat shock factor protein 1 (Mus musculus, UniProt P38532); assay: decrease of HSF1-responsive luciferase luminescence – cell-based, NIH3T3, dose retest, confirmation (AID 2382); assay type: functional;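 note: NIH3T3 fibroblasts with HSF1-driven luciferase reporter stressed by proteasome inhibitor MG132; luminescence from HSF1-driven luciferase expression after 8 hours of MG132 stress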
# T4 sequence (P38532 whole entry): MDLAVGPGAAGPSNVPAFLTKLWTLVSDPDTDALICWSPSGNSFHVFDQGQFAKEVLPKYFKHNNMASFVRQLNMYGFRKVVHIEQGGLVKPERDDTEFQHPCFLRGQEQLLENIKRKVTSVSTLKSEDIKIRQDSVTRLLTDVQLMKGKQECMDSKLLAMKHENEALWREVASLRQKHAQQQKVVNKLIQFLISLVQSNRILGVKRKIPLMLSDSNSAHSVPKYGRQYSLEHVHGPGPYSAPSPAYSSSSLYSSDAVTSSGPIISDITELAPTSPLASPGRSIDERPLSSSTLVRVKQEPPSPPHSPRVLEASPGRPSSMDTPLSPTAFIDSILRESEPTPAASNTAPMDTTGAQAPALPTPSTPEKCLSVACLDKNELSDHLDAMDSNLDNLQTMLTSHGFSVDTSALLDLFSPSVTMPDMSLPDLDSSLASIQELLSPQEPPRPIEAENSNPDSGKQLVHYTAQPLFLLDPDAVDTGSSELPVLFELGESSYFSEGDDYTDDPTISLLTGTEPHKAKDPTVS
# [13] = molecular target: Photoreceptor-specific nuclear receptor (Homo sapiens, UniProt Q9Y5X4); assay type: functional, cell-based;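 note: CHO-S cells with Gal4-NCOR and VP16-NR2E3 two-hybrid luciferase reporter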
# Sequence of Photoreceptor-specific nuclear receptor (Q9Y5X4 whole entry, the tested form may be a part): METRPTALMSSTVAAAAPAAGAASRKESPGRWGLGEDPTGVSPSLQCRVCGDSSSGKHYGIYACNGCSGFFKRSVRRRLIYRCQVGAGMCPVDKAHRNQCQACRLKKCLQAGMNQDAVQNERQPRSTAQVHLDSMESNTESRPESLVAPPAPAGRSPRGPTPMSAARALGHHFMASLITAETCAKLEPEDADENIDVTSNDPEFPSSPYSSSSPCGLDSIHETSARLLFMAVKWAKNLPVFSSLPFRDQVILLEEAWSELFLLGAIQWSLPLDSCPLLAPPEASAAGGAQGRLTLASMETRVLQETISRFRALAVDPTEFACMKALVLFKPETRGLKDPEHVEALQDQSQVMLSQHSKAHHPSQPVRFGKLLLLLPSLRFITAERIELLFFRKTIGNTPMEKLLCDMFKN
# [14] = molecular target: T5, Corticotropin-releasing factor receptor 2/Corticotropin-releasing factor-binding protein (Homo sapiens, UniProt P24387+Q13324); assay: activators of CRF receptor 2 with binding protein – uHTS hits, confirmation (AID 602473); assay type: functional; settings: read-out: EC50_Mean
# T5 sequence (Q13324 whole entry): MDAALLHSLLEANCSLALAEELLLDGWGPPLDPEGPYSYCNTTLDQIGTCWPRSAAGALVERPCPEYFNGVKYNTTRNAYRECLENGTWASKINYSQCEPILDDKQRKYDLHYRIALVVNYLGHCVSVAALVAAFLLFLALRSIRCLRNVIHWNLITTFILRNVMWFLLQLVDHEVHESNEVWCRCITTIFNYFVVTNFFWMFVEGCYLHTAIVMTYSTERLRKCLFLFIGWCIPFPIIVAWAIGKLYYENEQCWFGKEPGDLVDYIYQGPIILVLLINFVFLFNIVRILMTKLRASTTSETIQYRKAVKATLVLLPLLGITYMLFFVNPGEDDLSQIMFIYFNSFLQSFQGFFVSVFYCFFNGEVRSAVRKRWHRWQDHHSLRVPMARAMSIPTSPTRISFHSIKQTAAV
# T5 sequence (P24387 whole entry): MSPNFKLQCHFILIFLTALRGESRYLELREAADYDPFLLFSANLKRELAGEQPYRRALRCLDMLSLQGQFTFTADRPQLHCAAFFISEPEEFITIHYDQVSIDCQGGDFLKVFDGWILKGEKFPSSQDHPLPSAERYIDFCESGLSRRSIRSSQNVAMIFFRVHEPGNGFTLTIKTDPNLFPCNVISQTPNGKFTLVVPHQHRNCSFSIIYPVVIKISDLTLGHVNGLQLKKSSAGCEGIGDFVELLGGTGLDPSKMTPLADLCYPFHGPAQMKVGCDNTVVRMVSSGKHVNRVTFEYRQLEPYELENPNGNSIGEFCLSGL
# INS1 = assay: INS-1E survival protection against cytokine death – cell-based, luminescence, retest, dose response (AID 449756); assay type: functional; settings: Rattus norvegicus;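 note: cell death triggered by IL-1 beta plus TNF-alpha plus IFN-gamma mixture; protective hits raise ATP signal compared with cytokine alone wells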
# [15] = blockers of CRF-binding protein–CRF-R2 complex – cell-based, uHTS hits, 384-well, dose response (AID 651639); assay type: functional, Homo sapiens; settings: read-out: IC50_Mean
# [16] = molecular target: T5, Corticotropin-releasing factor receptor 2/Corticotropin-releasing factor-binding protein; assay: Dose Response confirmation of uHTS hits for small molecule antagonists of the CRF-binding protein and CRF-R2 receptor complex.; assay type: functional; settings: read-out: IC50_Mean
# HEK293 = assay: EBV LMP1 TES2 canonical NF-kB signalling blockers – cell-based, HEK293, luciferase, cherry-pick, dose response (AID 588343); assay type: functional; settings: Homo sapiens
# [17] = molecular target: Heat shock protein HSP 90-alpha (Homo sapiens, UniProt P07900); assay type: functional, organism-based
# Nonstructural protein 1 = Nonstructural protein 1 (Influenza A virus, UniProt Q194T2); assay type: functional, Influenza A virus (A/California/07/2009(H1N1))
# Sequence of Nonstructural protein 1 (Q194T2 whole entry): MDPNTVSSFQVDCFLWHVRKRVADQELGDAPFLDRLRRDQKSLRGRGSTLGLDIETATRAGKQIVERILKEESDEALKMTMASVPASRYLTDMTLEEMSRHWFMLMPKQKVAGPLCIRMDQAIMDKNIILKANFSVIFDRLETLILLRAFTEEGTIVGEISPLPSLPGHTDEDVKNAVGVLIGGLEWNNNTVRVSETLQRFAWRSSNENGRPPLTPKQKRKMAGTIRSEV
# Fatty acid synthase [18] = molecular target: T6, Fatty acid synthase (Homo sapiens, UniProt P49327); assay: inhibition of human FAS-TE enzyme activity – biochemical, kinetic fluorescence intensity, dose response (AID 624326); assay type: functional;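 note: rate of fluorescence rise from hydrolysis of a fluorogenic O-methyl fluorescein ester substrate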
# T6 sequence (P49327 whole entry): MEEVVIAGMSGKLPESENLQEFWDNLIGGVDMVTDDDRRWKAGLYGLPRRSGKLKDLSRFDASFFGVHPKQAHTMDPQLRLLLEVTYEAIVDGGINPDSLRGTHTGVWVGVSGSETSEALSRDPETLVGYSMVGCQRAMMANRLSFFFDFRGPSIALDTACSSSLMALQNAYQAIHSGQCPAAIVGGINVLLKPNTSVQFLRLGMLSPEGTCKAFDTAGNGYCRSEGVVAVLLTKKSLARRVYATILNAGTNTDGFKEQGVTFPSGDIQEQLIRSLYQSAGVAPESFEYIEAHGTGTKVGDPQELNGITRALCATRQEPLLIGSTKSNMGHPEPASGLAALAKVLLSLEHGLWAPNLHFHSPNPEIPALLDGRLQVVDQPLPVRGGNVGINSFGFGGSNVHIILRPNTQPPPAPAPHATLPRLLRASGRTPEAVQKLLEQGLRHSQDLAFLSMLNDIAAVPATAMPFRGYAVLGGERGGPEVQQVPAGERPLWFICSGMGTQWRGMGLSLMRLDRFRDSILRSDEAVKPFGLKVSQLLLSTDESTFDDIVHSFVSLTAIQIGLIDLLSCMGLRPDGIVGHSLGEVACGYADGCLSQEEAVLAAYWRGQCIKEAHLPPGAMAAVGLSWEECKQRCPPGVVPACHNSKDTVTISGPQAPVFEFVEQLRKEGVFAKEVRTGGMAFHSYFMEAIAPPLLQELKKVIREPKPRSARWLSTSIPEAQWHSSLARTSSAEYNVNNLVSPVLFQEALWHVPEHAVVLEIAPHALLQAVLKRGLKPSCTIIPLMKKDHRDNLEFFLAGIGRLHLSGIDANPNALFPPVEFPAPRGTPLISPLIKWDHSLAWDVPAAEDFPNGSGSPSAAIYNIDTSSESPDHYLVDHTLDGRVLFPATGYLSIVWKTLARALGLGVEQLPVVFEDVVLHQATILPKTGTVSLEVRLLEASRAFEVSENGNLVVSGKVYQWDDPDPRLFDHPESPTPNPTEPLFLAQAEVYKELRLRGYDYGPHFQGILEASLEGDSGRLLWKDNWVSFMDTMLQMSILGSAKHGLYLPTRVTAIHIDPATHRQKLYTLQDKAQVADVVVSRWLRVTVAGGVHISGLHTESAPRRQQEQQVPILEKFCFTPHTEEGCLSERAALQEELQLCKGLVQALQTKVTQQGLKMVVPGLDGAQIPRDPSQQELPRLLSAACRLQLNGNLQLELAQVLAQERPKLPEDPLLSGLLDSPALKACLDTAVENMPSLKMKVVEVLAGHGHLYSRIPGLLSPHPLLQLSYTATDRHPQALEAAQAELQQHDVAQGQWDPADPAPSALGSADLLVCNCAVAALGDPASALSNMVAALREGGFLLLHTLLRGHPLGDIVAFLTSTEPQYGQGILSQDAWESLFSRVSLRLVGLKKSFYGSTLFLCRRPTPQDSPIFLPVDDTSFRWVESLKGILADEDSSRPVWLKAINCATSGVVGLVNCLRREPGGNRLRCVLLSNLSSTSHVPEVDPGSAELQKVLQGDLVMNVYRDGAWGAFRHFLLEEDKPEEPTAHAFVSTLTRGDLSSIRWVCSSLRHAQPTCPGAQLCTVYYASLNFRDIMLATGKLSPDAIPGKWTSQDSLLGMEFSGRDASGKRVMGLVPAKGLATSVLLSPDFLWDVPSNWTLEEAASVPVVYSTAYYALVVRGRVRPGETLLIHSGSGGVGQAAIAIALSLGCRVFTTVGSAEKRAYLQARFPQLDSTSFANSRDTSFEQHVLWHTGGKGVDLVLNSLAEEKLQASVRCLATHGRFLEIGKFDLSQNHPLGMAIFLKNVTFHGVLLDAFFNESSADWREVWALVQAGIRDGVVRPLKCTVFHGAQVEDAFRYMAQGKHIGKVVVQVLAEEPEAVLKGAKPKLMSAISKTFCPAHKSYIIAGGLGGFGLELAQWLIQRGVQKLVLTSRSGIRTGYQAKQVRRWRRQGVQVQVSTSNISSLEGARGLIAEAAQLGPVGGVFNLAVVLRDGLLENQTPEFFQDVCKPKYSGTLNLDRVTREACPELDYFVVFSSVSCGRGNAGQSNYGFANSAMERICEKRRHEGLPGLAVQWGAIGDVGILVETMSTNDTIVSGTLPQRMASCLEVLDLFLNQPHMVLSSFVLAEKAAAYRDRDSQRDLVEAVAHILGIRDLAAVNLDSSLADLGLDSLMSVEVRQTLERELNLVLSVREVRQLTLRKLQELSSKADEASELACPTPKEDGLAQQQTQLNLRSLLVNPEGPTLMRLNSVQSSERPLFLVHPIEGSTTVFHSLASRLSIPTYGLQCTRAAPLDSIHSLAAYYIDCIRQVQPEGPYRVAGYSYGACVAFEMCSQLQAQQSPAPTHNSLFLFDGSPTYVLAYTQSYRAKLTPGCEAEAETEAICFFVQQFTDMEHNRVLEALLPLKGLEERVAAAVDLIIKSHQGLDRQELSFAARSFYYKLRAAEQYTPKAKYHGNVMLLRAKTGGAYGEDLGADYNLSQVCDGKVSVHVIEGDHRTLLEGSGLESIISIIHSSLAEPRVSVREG
# Fatty acid synthase [19] = molecular target: T6, Fatty acid synthase; assay: inhibition of human FAS-TE enzyme activity – biochemical, endpoint fluorescence intensity, uHTS hits, dose response (AID 624327); assay type: functional;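 note: fluorescence from hydrolysis of an O-methyl fluorescein acyl ester substrate by the enzyme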
smiles,measurement,setting,value
COc1ccc(OC)c2sc(N(CCCN(C)C)C(=O)CCS(=O)(=O)c3ccccc3)nc12,IC50,[1],2.06 µM (active)
same,EC50,[2],4.32 µM (active)
same,EC50,[3],6.44 µM (active)
same,AC50,Paired box protein Pax-8,4.77 µM (active)
same,IC50,Beta Lactamase,32.1 µM (inactive)
Cc1nnc(SCc2nc3scc(-c4ccccc4)c3c(=O)[nH]2)s1,IC50,[4],98.6 µM (active)
same,IC50,Prothrombin,85.3 µM (active)
same,IC50,[5],> 100 µM (inactive)
COc1ccc(NC(=O)COC(=O)CCCOc2ccc(Cl)cc2Cl)cc1,IC50,[6],83.3 µM (inactive)
COc1ccc(N2C(=O)C3C(C2=O)C(C(=O)c2ccccc2)N2CCCC32)cc1 (stereo not given),IC50,[7],31 µM (inactive)
same,IC50,[8],11 µM (active)
CC(=O)N1CCc2cc(NN=C3C(=O)CCCC3=O)ccc21,IC50,[4],30.2 µM (active)
same,IC50,Prothrombin,43.2 µM (active)
same,IC50,[5],> 100 µM (inactive)
c1ccc(CCNCCCOc2cccc3ccccc23)cc1,IC50,[9],156 µM (active)
same,CC50,[10],75.9 µM (active)
Cc1ccc(OCCn2cc(C(=S)N3CCCC3)c3ccccc32)cc1C,AC50,[11],72.9 µM (active)
NC(=O)CCC(C(=O)O)N1C(=O)c2ccc(O)cc2C1=O (stereo not given),EC50,[12],> 195 µM (not active)
same,IC50,[7],23.9 µM (inactive)
same,IC50,[8],16.9 µM (active)
Nc1nc(N)nc(-c2cc(O)ccc2O)n1,IC50,[13],5.7 µM (active)
CC(C)Cn1c(SCC(=O)N2CCc3ccccc3C2)nc2cc(Cl)ccc2c1=O,EC50,[14],> 53 µM (inactive)
same,AC50,INS1,7.24 µM (active)
same,IC50,[15],6.45 µM (active)
same,IC50,[16],6.92 µM (active)
Fc1ccccc1CN=C(S)Nc1ccc(Cl)cc1,IC50,[15],14.8 µM (active)
CC(=NNC(=S)N1CCCCCC1)c1ccccn1,AC50,HEK293,0.545 µM (active)
same,AC50,[11],4.98 µM (active)
same,AC50,[17],3.49 µM (active)
same,IC50,Nonstructural protein 1,3 µM (active)
Cc1cc(C)c(S(=O)(=O)N2CCN(C(=O)c3ccccc3OCc3c(C)noc3C)CC2)c(C)c1,AC50,[11],91.5 µM (active)
CCOC(=O)[C@]12Cc3cc(Cl)ccc3[C@H]1N(C1CCCCC1)C(=O)c1cc(OC)ccc12,IC50,Fatty acid synthase [18],3.04 µM (active)
same,IC50,Fatty acid synthase [19],2.71 µM (active)
same,IC50,[1],11.7 µM (inactive)
same,IC50,Beta Lactamase,16.8 µM (inactive)
